Assay results as given in US8314092B2, “Substituted [(5H-pyrrolo[2,1-c][1,4]benzodiazepin-11-yl)piperazin-1-yl]-2,2-dimethylpropanoic acid compounds as dual activity H1 inverse agonists/5-HT2A antagonists” (Eli Lilly and Company, priority 2011, dated 2012).
Counter-ions that a name gives are not always drawn.

Columns and labels:
5-HT1D = 5-HT1D (Homo sapiens, UniProt P28221); experiment: 5-HT1D binding
From the text: (§1) Further, the compounds of the invention may be tested in binding assays and functional activity assays by well known methods for other physiologically important receptors such as, but not limited to, the hERG channel, other serotonin receptors (specifically 5-HT1A, 5-HT1B, 5-HT1D, 5-HT1E, 5-HT1F receptors, lack of agonist activity at 5-HT2B receptors, 5-HT2C, 5-HT4, 5-HTS, 5-HT6, and 5-HT7 receptors), muscarinic receptors, dopaminergic receptors (specifically D1, D2, and D3), GABAA receptors, adrenergic receptors and monoamine transporters. Certain exemplified compounds are tested at these receptors and are shown to lack significant activity.

Adrenergic alpha1B = Adrenergic alpha1B (Homo sapiens, UniProt P35368); experiment: Adrenergic alpha1B binding
From the text: as §1

5-HT1B = 5-HT1B (Homo sapiens, UniProt P28222); experiment: 5-HT1B binding
From the text: as §1

[1] = target: T1, recombinant 5-HT2c receptor (human) (Homo sapiens, UniProt P28335); experiment: 5-HT2c competition binding assay ([125I]-DOI SPA)
T1 construct: expressed in transfected cells
Procedure: [^125I]-(±)DOI binding experiments are carried out in SPA 96-well format. Membranes used in this assay are prepared from AV-12 cells stably expressing recombinant 5-HT2c receptor (human). The incubation is initiated by the addition of a mixture of WGA PVT SPA beads (0.5 mg/well, Perkin Elmer (MA, USA), RPNQ0001) and 2.5 μg membranes to assay buffer (50 mM Tris-HCl, 10 mM MgCl2, 0.5 mM EDTA, 10 μM pargyline, 0.1% ascorbic acid, pH7.4) containing 0.2 nM [[^125I]-(±)DOI and varying concentrations of the test compound (10 point concentration response curves). Non-specific binding is determined in the presence of 20 μM 1-(1-Naphthyl)piperazine. Samples are incubated for four hours at room temperature (22° C.) and then read in a Microbeta Trilux.
(§2) Curves are evaluated using a 4-parameter logistic nonlinear equation to obtain the concentration of competitor causing 50% inhibition of radioligand binding (IC50). Equilibrium dissociation constants (Ki) are calculated according to the equation Ki=IC50/(1+L/Kd), where L equals the concentration of radioligand used in the experiment and Kd equals the equilibrium dissociation constant of the radioligand for the receptor, determined from standard saturation analysis or homologous competition experiments. […]

Adrenergic alpha2C = Adrenergic alpha2C (Homo sapiens, UniProt P18825); experiment: Adrenergic alpha2C binding
From the text: as §1

Norepinephrine Transport = Norepinephrine Transport (Homo sapiens, UniProt P23975); experiment: Norepinephrine transporter assay; type: binding
From the text: as §1

Dopamine D1 = Dopamine D1 (Homo sapiens, UniProt P21728); experiment: Dopamine D1 binding
From the text: as §1

5-HT1A = 5-HT1A (Homo sapiens, UniProt P08908); experiment: 5-HT1A binding
From the text: as §1

Adrenergic alpha1A = Adrenergic alpha1A (Homo sapiens, UniProt P35348); experiment: Adrenergic alpha1A binding
From the text: as §1

5-HT5 = 5-HT5 (Homo sapiens, UniProt P47898); experiment: 5-HT5 binding
From the text: as §1

Dopamine D2 = Dopamine D2 (Homo sapiens, UniProt P14416); experiment: Dopamine D2 binding
From the text: as §1

5-HT6 = 5-HT6 (Homo sapiens, UniProt P50406); experiment: 5-HT6 binding
From the text: as §1

Dopamine Transporter = Dopamine Transporter (Homo sapiens, UniProt Q01959); experiment: Dopamine transporter assay; type: binding
From the text: as §1

Serotonin Transporter = Serotonin Transporter (Homo sapiens, UniProt P31645); experiment: Serotonin transporter assay; type: binding
From the text: as §1

Dopamine D3 = Dopamine D3 (Homo sapiens, UniProt P35462); experiment: Dopamine D3 binding
From the text: as §1

5-HT7 = 5-HT7 (Homo sapiens, UniProt P34969); experiment: 5-HT7 binding
From the text: as §1

hERG channel = hERG channel (Homo sapiens, UniProt Q12809); experiment: hERG channel assay
From the text: as §1

Adrenergic alpha2B = Adrenergic alpha2B (Homo sapiens, UniProt P18089); experiment: Adrenergic alpha2B binding
From the text: as §1

[2] = target: T2, recombinant 5-HT2A receptor (human) (Homo sapiens, UniProt P28223); experiment: 5-HT2A competition binding assay ([3H]-Ketanserin SPA)
T2 construct: expressed in transfected cells
Procedure: [^3H]-Ketanserin binding experiments are carried out in SPA 96-well format. Membranes used in this assay are prepared from AV-12 cells stably expressing recombinant 5-HT2A receptor (human). The incubation is initiated by the addition of a mixture of WGA YSi SPA beads (1 mg/well, Perkin Elmer (MA, USA), RPNQ0011) and 2 μg membranes to assay buffer (67 mM Tris, 0.5 mM EDTA; pH 7.6) containing 3.1 nM [^3H]-Ketanserin and varying concentrations of the test compound (10 point concentration response curves). Non-specific binding is determined in the presence of 20 μM 1-(1-Naphthyl)piperazine. Samples were incubated for four hours at room temperature (22° C.) and then read in a Microbeta Trilux.
as §2, with “experiments. Reported values for Ki, where n values are indicated, are shown as geometric mean±the standard error of the mean (SEM), with the number of replicate determinations indicated by n.” for “experiments.”

[3] = target: human recombinant H1 receptor (Homo sapiens, UniProt P35367); experiment: H1 competition binding assay ([3H]-Pyrilamine SPA); parameters: expressed in transfected cells
Procedure: [^3H]-Pyrilamine binding experiments are carried out in SPA (scintillation proximity assay) 96-well format. Membranes used in this assay are prepared from HEK-293 cells stably expressing recombinant H1 receptor (human). The incubation is initiated by the addition of a mixture of WGA PVT SPA beads (1 mg/well, Perkin Elmer (MA, USA) RPNQ0001) and 3 μg membranes to assay buffer (67 mM Tris; pH 7.6) containing 3.5 nM [^3H]-Pyrilamine and varying concentrations of the test compound (10 point concentration response curves). Non-specific binding is determined in the presence of 10 μM Triprolidine. Samples are incubated for four hours at room temperature (22° C.) and then read in a Microbeta Trilux.
as §2, with “experiments. Reported values for Ki, where n values are indicated, are shown as geometric mean±the standard error of the mean (SEM), with the number of replicate determinations indicated by n.” for “experiments.”

Adrenergic alpha2A = Adrenergic alpha2A (Homo sapiens, UniProt P08913); experiment: Adrenergic alpha2A binding
From the text: as §1

Wistar rats = experiment: Sleep and behavioral monitoring in rats (EEG, EMG, motion); type: in vivo; conditions: rat, 3 mg/kg
Procedure: Sleep and behavioral monitoring in rats: Representative compounds of the present invention are tested in rats for their ability to increase the amount of sleep or decrease sleep interruption or both without undesired effects such as inhibition of REM sleep, waking motor impairment, and/or rebound insomnia. Test animals are continuously monitored by electro-encephalograms (EEG), electromyograms (EMG), and motion to measure cumulative nonREM sleep, cumulative total sleep, average sleep bout duration, longest sleep bout duration, rebound insomnia, REM sleep inhibition and locomotor activity intensity during wakefulness. Methods for such studies are known in the art (see for example methods described in Edgar D M, Seidel W F. Modafinil induces wakefulness without intensifying motor activity or subsequent rebound hypersomnolence in the rat. J Pharmacology & Experimental Therapeutics 1997; 283: 757-769; van Gelder R N, Edgar D M, Dement W C. Real-time automated sleep scoring: validation of a microcomputer-based system for mice. Sleep 1991, 14: 48-55; and Gross B A, Walsh C M, Turakhia A A, Booth V, Mashour G A, Poe G R. Open-source logic-based automated sleep scoring software using electrophysiological recordings in rats. J Neurosci Methods. 2009; 184(1):10-8.) Studies are conducted as follows: Animal preparation. Adult, male Wistar rats (approximately 270-300 g at time of surgery) are surgically fitted for chronic recording of EEG, EMG, and motion as follows: Rats are surgically prepared with a cranial implant consisting of four stainless steel screws for EEG recording (two frontal [3.9 mm anterior from bregma, and ±2.0 mm mediolaterally] and two occipital [6.4 mm posterior from bregma, ±5.5 mm mediolaterally]), and with two Teflon-coated stainless steel wires for EMG recording (positioned under the nuchal trapezoid muscles). All leads are soldered to a miniature connector (Microtech, Boothwyn, Pa.) prior to surgery. The implant assembly is affixed to the skull by the combination of the stainless steel EEG recording screws, cyanoacrylate applied between the implant connector and skull, and dental acrylic. Locomotor activity is monitored via a miniature transmitter (Minimitter PDT4000G, Philips Respironics, Bend, Oreg.) surgically placed into the abdomen. At least 3 weeks are allowed for recovery. Recording environment. Each rat is housed individually within a microisolator cage modified with an inserted polycarbonate filter-top riser to allow more vertical headroom. A flexible cable that minimally restricts movement is connected at one end to a commutator affixed to the cage top and at the other end to the animal's cranial implant. Each cage is located within separate, ventilated compartments of a stainless steel sleep-wake recording chamber. Food and water are available ad libitum and the ambient temperature is maintained at about 23±1° C. A 24-hr. light-dark cycle (LD 12:12) using fluorescent light is maintained throughout the study. Relative humidity averages approximately 50%. Animals are undisturbed for at least 30 hrs before and after each treatment. Study design and dosing. The vehicle (placebo, methylcellulose 15 centipoise 0.25% in water) or one of the test compound dose levels is administered orally at 1 mL/kg pseudo-randomly such that no rat receives the same treatment twice, and no rat receives more than two of the 8 treatments in any one study. Each rat is removed from its cage for about a minute to be weighed and treated. At least 6 days “washout” period precede and follow each treatment. Data collection. […]

Sequence of Dopamine D2 (P14416 whole entry): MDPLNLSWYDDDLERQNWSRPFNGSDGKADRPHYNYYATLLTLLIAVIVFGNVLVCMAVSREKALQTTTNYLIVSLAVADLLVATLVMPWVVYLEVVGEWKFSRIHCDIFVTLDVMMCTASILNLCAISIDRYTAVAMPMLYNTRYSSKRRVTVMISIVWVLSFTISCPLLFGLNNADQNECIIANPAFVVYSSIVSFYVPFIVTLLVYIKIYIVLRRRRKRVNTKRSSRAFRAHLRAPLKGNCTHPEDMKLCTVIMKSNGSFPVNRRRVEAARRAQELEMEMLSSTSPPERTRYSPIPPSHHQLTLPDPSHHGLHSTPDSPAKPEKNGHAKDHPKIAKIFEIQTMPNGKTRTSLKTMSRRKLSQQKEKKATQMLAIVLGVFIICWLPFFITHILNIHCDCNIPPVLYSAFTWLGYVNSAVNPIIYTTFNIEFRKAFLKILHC
Sequence of Adrenergic alpha2C (P18825 whole entry): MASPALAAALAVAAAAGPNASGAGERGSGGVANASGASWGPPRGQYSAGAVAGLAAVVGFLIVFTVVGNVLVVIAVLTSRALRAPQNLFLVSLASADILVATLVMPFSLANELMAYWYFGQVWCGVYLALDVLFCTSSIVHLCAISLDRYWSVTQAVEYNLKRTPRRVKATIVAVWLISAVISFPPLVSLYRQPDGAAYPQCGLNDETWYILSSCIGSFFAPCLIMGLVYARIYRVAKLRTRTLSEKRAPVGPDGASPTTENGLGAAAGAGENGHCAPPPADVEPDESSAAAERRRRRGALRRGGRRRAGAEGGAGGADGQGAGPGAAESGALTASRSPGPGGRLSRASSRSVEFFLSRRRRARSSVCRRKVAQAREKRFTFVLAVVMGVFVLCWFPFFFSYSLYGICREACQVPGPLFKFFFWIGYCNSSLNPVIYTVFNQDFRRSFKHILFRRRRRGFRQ
T2 sequence (P28223 whole entry): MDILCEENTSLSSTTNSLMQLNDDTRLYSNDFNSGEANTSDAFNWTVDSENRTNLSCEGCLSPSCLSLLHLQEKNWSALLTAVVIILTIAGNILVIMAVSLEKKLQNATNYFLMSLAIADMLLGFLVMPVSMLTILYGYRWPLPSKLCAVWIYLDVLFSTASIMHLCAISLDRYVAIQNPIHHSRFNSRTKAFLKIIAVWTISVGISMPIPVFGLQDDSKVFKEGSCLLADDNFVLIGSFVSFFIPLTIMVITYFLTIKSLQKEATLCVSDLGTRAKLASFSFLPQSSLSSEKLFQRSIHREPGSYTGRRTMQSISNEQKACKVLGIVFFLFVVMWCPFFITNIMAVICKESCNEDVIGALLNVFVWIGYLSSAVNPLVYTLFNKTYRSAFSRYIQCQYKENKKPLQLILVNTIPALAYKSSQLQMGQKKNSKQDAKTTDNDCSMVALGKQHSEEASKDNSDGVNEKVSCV
T1 sequence (P28335 33-458): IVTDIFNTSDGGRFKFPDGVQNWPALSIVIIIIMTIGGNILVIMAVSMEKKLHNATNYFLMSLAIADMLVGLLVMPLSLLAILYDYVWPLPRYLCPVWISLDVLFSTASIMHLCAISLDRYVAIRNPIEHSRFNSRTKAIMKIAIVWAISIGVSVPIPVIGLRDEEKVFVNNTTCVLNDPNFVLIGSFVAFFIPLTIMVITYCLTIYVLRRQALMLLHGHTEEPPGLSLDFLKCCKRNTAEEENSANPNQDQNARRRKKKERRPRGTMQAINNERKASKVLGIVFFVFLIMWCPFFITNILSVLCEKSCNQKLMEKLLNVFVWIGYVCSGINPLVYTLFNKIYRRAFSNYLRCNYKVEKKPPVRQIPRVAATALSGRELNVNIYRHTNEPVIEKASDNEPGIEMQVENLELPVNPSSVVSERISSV
Sequence of 5-HT1D (P28221 whole entry, species assumed): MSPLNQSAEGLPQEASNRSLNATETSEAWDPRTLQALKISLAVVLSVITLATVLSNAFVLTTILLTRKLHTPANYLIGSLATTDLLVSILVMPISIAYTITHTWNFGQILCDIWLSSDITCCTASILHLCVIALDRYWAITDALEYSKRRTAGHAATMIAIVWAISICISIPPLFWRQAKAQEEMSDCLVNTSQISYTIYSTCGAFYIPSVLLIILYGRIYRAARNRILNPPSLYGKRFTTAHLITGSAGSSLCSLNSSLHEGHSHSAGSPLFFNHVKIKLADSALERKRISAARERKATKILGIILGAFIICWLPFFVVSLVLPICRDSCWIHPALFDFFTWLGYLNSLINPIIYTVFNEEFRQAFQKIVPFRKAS
Sequence of 5-HT1A (P08908 whole entry, species assumed): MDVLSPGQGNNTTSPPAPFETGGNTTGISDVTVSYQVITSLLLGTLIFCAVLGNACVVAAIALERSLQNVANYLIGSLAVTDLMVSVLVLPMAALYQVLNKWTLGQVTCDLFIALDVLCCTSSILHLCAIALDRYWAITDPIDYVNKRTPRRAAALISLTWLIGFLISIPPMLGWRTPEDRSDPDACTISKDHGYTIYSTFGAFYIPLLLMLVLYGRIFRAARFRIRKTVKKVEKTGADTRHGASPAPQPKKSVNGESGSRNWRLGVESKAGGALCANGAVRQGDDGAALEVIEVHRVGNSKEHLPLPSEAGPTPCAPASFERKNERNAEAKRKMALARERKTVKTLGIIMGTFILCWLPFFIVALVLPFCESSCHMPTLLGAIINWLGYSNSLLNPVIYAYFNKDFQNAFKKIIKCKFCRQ
Sequence of Serotonin Transporter (P31645 whole entry): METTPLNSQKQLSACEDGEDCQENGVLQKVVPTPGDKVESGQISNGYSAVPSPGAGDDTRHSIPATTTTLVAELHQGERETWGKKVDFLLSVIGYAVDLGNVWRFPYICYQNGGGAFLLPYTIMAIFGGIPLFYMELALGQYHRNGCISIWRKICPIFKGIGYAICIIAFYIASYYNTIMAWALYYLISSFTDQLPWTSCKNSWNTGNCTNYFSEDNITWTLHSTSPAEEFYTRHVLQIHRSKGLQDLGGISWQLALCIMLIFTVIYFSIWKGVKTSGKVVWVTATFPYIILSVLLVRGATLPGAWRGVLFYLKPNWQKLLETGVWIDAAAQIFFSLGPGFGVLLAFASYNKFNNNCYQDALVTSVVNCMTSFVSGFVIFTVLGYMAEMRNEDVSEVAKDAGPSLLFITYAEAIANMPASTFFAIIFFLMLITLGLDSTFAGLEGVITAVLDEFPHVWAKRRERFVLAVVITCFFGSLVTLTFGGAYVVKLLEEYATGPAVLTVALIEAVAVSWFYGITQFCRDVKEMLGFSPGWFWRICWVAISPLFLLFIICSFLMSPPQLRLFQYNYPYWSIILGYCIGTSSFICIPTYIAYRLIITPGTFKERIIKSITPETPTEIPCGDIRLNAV
Sequence of Dopamine D3 (P35462 whole entry): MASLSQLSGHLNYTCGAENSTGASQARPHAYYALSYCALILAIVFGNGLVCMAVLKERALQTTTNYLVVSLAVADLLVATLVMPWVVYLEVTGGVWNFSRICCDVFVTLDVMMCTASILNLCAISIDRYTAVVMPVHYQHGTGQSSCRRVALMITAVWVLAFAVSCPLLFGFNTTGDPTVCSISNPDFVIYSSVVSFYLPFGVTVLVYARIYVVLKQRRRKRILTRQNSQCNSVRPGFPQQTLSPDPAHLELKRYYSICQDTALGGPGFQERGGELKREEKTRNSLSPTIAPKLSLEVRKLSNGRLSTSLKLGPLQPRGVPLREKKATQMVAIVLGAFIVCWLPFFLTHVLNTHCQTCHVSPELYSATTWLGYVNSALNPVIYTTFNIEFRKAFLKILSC
Sequence of Adrenergic alpha2A (P08913 whole entry): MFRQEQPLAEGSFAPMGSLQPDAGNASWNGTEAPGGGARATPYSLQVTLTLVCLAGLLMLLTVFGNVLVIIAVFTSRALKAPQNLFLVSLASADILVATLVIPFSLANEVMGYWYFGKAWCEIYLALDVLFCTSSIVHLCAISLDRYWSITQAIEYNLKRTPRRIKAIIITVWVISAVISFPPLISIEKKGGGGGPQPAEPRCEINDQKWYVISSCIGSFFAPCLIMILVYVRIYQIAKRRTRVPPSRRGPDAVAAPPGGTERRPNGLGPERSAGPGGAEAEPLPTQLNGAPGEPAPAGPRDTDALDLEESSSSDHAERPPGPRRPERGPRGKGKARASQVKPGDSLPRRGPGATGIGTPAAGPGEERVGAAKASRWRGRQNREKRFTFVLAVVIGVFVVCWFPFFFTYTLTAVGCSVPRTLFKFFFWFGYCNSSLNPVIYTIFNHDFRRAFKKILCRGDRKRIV
Sequence of Dopamine Transporter (Q01959 whole entry): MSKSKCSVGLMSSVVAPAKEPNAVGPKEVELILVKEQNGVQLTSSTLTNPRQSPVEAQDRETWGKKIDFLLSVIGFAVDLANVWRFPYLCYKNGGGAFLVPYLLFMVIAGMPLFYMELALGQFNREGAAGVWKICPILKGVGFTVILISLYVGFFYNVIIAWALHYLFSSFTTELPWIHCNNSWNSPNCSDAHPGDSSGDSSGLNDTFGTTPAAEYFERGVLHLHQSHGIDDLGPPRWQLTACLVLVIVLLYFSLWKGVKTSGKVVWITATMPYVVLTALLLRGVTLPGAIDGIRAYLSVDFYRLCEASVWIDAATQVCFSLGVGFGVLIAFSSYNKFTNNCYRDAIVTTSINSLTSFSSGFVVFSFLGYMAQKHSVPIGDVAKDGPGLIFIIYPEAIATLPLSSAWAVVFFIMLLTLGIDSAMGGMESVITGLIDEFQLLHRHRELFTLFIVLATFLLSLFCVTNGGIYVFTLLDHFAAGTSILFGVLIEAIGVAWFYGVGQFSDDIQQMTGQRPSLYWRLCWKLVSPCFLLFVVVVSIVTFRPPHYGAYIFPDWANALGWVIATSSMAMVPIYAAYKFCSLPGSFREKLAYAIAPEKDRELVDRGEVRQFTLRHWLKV

## Cc1cc2n(c1)Cc1cc(Cl)ccc1N=C2N1CCN(CC(C)(C)C(=O)O)CC1 [Example 1, 3-[4-(7-chloro-2-methyl-5H-pyrrolo[2,1-c][1,4]benzodiazepin-11-yl)piperazin-1-yl]-2,2-dimethylpropanoic acid]
5-HT1D
  Ki: > 3.98 µM
Adrenergic alpha1B
  Ki: > 10.9 µM
5-HT1B
  Ki: > 5.58 µM
[1]
  Ki: 3.81 µM
Adrenergic alpha2C
  Ki: > 4.02 µM
Norepinephrine Transport
  Norepinephrine Transport: >682
Dopamine D1
  Ki: 3.79 µM
5-HT1A
  Ki: > 6.94 µM
Adrenergic alpha1A
  Ki: > 8.91 µM
5-HT5
  Ki: > 8.83 µM
Dopamine D2
  Ki: > 4.5 µM
5-HT6
  Ki: 2.69 µM
Dopamine Transporter
  Dopamine Transporter: >879
Serotonin Transporter
  Serotonin Transporter: >641
Dopamine D3
  Ki: > 5.68 µM
5-HT7
  Ki: > 2.06 µM
hERG channel
  hERG Channel: >100 µM
Adrenergic alpha2B
  Ki: > 4.98 µM
[2]
  Ki: 0.0575 µM
[3]
  Ki: 0.0273 µM
Adrenergic alpha2A
  Ki: > 9.03 µM

## CC(C)(CN1CCN(C2=Nc3ccc(Cl)cc3Cn3cc(Br)cc32)CC1)C(=O)O [Example 15, 3-[4-(2-Bromo-7-chloro-5H-pyrrolo[2,1-c][1,4]benzodiazepin-11-yl)piperazin-1-yl]-2,2-dimethylpropanoic acid dihydrochloride]
Wistar rats
  REM sleep inhibition (in words): without significant
  cumulative NREM sleep time (in words): significantly increase
  cumulative total sleep time (in words): significantly increase
  inhibition of locomotor intensity (LMI) (in words): without significant
  rebound insomnia (in words): without significant

## CCc1cc2n(c1)Cc1cc(Cl)ccc1N=C2N1CCN(CC(C)(C)C(=O)O)CC1 [Example 16, 3-[4-(7-Chloro-2-ethyl-5H-pyrrolo[2,1-c][1,4]benzodiazepin-11-yl)piperazin-1-yl]-2,2-dimethylpropanoic acid dihydrochloride]
Wistar rats
  REM sleep inhibition (in words): without significant
  cumulative NREM sleep time (in words): significantly increase
  cumulative total sleep time (in words): significantly increase
  inhibition of locomotor intensity (LMI) (in words): without significant
  rebound insomnia (in words): without significant

## CC(C)(CN1CCN(C2=Nc3ccc(Cl)cc3Cn3cc(C(F)(F)F)cc32)CC1)C(=O)O [Example 18, 3-{4-[7-Chloro-2-(trifluoromethyl)-5H-pyrrolo[2,1-c][1,4]benzodiazepin-11-yl]piperazin-1-yl}-2,2-dimethylpropanoic acid dihydrochloride]
Wistar rats
  REM sleep inhibition (in words): without significant
  cumulative NREM sleep time (in words): significantly increase
  cumulative total sleep time (in words): significantly increase
  inhibition of locomotor intensity (LMI) (in words): without significant
  rebound insomnia (in words): without significant

## CC(C)(CN1CCN(C2=Nc3ccc(Cl)cc3Cn3cc(Cl)cc32)CC1)C(=O)O [Example 19, 3-[4-(2,7-Dichloro-5H-pyrrolo[2,1-c][1,4]benzodiazepin-11-yl)piperazin-1-yl]-2,2-dimethylpropanoic acid dihydrochloride]
Wistar rats
  REM sleep inhibition (in words): without significant
  cumulative NREM sleep time (in words): significantly increase
  cumulative total sleep time (in words): significantly increase
  inhibition of locomotor intensity (LMI) (in words): without significant
  rebound insomnia (in words): without significant
